# Target: SMYD3 (Homo sapiens (Human), UniProt Q9H7B4)
# Experiment: SMYD3 biochemical assay (SMYD3 enzyme assay on MEKK2 protein substrate, 3H-SAM scintillation proximity assay)
# Conditions: read-out: SMYD3 Biochem IC50 (μM)*
# Summary of the method: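 Detection used scintillation proximity beads to capture ³H-methylated GST-MEKK2 after quench with 100 uM final cold SAM. The reaction was started by SAM/MEKK2 addition after a 30 min RT compound–enzyme preincubation. Enzyme was tag-free full-length human SMYD3 from E. coli, in buffer of 25 mM Tris-Cl pH 8.0, 1 mM TCEP, 0.005% BSG, 0.005% Tween 20.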
# Sequence of SMYD3 (Q9H7B4 whole entry): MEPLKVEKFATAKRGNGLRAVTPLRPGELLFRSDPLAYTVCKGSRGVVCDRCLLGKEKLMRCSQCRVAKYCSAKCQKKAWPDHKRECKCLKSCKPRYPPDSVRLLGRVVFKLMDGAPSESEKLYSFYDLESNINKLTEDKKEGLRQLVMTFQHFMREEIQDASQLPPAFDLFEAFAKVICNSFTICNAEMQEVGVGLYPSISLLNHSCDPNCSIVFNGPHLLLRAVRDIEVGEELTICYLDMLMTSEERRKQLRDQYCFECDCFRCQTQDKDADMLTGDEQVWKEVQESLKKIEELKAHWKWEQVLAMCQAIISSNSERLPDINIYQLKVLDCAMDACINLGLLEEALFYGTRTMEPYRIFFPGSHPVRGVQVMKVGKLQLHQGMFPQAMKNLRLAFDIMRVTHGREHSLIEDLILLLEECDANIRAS
row,SMILES,IC50 [µM]
1,"Nc1nccnc1C(=O)N[C@H]1CC[C@H](N)CC1 [compound 153, 3-amino-N-((1r,4r)-4-aminocyclohexyl)pyrazine-2-carboxamide]",> 100
2,"NCCC(=O)N[C@H]1CC[C@H](NC(=O)c2ccc(-c3ccccc3)cc2)CC1 [compound 154, N-((1r,4r)-4-(3-aminopropanamido)cyclohexyl)-[1,1′-biphenyl]-4-carboxamide]",37.3
3,"N[C@H]1CC[C@H](NC(=O)c2ccc(-c3ccccc3)cc2)CC1 [compound 155, N-((1r,4r)-4-aminocyclohexyl)-[1,1′-biphenyl]-4-carboxamide]",79.2
4,"NCCC(=O)N[C@H]1CC[C@H](NC(=O)c2ccc(S(N)(=O)=O)cc2)CC1 [compound 156, N-((1r,4r)-4-(3-aminopropanamido)cyclohexyl)-4-sulfamoylbenzamide]",> 100
5,"CC(NC(=O)c1cncc(F)c1)C1CCN(C(=O)[C@H](C)N)CC1 (stereo partly drawn) [compound 157, N-(1-(1-(L-alanyl)piperidin-4-yl)ethyl)-5-fluoronicotinamide]",> 100
6,"NCCC(=O)N[C@H]1CC[C@H](NC(=O)c2cncc(F)c2)CC1 [compound 158, N-((1r,4r)-4-(3-aminopropanamido)cyclohexyl)-5-fluoronicotinamide]",> 100
7,"N[C@H]1CC[C@H](NC(=O)c2cncc(F)c2)CC1 [compound 159, N-((1r,4r)-4-aminocyclohexyl)-5-fluoronicotinamide]",> 100
8,"N[C@H]1CC[C@H](NC(=O)c2ccc3cc[nH]c3c2)CC1 [compound 160, N-((1r,4r)-4-aminocyclohexyl)-1H-indole-6-carboxamide]",> 100
9,"N[C@H]1CC[C@H](NC(=O)c2ccc3nc[nH]c3c2)CC1 [compound 161, N-((1r,4r)-4-aminocyclohexyl)-1H-benzo[d]imidazole-6-carboxamide]",> 100
10,"CC(NC(=O)c1ccc2ccccc2n1)C1CCN(C(=O)[C@H](C)N)CC1 (stereo partly drawn) [compound 162, N-(1-(1-(L-alanyl)piperidin-4-yl)ethyl)quinoline-2-carboxamide]",> 100
11,"NCCC(=O)N[C@H]1CC[C@H](NC(=O)c2ccc3ccccc3n2)CC1 [compound 163, N-((1r,4r)-4-(3-aminopropanamido)cyclohexyl)quinoline-2-carboxamide]",> 100
12,"N[C@H]1CC[C@H](NC(=O)c2ccc3ccccc3n2)CC1 [compound 164, N-((1r,4r)-4-aminocyclohexyl)quinoline-2-carboxamide]",> 100
13,"NCCC(=O)N[C@H]1CC[C@H](NC(=O)c2ccc3cnccc3c2)CC1 [compound 165, N-((1r,4r)-4-(3-aminopropanamido)cyclohexyl)isoquinoline-6-carboxamide]",15.5
14,"N[C@H]1CC[C@H](NC(=O)c2ccc3cnccc3c2)CC1 [compound 166, N-((1r,4r)-4-aminocyclohexyl)isoquinoline-6-carboxamide]",20.7
15,"CC(NC(=O)Cc1c[nH]c2ccccc12)C1CCN(C(=O)[C@H](C)N)CC1 (stereo partly drawn) [compound 167, N-(1-(1-(L-alanyl)piperidin-4-yl)ethyl)-2-(1H-indol-3-yl)acetamide]",> 100
16,"N[C@H]1CC[C@H](NC(=O)Cc2c[nH]c3ccccc23)CC1 [compound 168, N-((1r,4r)-4-aminocyclohexyl)-2-(1H-indol-3-yl)acetamide]",> 100
17,"COc1ccc2cc(C(C)C(=O)N[C@H]3CC[C@H](NC(=O)CCN)CC3)ccc2c1 (stereo partly shown) [compound 169, 3-amino-N-((1r,4r)-4-(2-(6-methoxynaphthalen-2-yl)propanamido)cyclohexyl)propanamide]",> 100
18,"COc1ccc2cc(C(C)C(=O)N[C@H]3CC[C@H](N)CC3)ccc2c1 (stereo partly shown) [compound 170, N-((1r,4r)-4-aminocyclohexyl)-2-(6-methoxynaphthalen-2-yl)propanamide]",76.4
19,"CC(NC(=O)c1nccc2ccccc12)C1CCN(C(=O)[C@H](C)N)CC1 (stereo partly drawn) [compound 171, N-(1-(1-(L-alanyl)piperidin-4-yl)ethyl)isoquinoline-1-carboxamide]",> 100
